Assay results from patent US20220291217A1, “GASTRIC CANCER MARKER AND EXAMINATION METHOD USING SAME” (JAPANESE FOUNDATION FOR CANCER RESEARCH, priority 2019, published 2022).

Test system: SNU-1 cells
Assay: Staurosporine-induced apoptosis, Annexin V/7AAD flow cytometry
Assay type: cell-based, human
Details: staurosporine 1.0 μM
Description: Staurosporine (STS), a kinase inhibitor, was added to the above cells at 1.0 μM to induce apoptosis (FIG. 4b). Apoptosis was detected with Annexin V, 7AAD kit (BD Bioscience), and analyzed by flow cytometry, BD FACSCalibur (BD Bioscience).

## CN[C@@H]1C[C@H]2O[C@@](C)([C@@H]1OC)n1c3ccccc3c3c4c(c5c6ccccc6n2c5c31)C(=O)NC4 [staurosporine, Staurosporine]
SNU-1 cells that do not express CA1, within 3 hours
  cells in which apoptosis is induced: 19.3%
SNU-1 cells with forcedly expressed 3'-FLAG-tagged CA1
  cells in which apoptosis was induced: 6.1%
